From PubChem BioAssay (NCI)
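Five compound concentrations were applied to cells in 96-well plates for 48 hours; endpoints were derived by simple linear interpolation of the resulting dose-response curve. TGI marks complete inhibition of growth.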

What was measured:
Assay in all cases: inhibition of tumour cell growth, NCI panel, 48 h
[1] = test system: 786-0 renal
[2] = test system: BT-549 breast
[3] = test system: CCRF-CEM leukemia
[4] = test system: EKVX NSCLC
[5] = test system: HS 578T breast
[6] = test system: K-562 leukemia
[7] = test system: LOX IMVI melanoma
[8] = test system: M14 melanoma
[9] = test system: MDA-MB-435
[10] = test system: NCI-H226 lung
[11] = test system: NCI-H23 lung
[12] = test system: OVCAR-3 ovarian
[13] = test system: OVCAR-5 ovarian
[14] = test system: TK-10 renal
[15] = test system: UACC-257 melanoma
[16] = test system: HCC-2998 colon
[17] = test system: HCT-15 colon
[18] = test system: MDA-MB-231 breast
[19] = test system: NCI/ADR-RES ovarian

SMILES: Cc1cc2cc3ccccc3cc2c(=O)[nH]1
- TGI [1]: > 10 µM
- TGI [2]: > 10 µM
- TGI [3]: > 10 µM
- TGI [4]: > 10 µM
- TGI [5]: > 10 µM
- TGI [6]: > 10 µM
- TGI [7]: > 10 µM
- TGI [8]: > 10 µM
- TGI [9]: > 10 µM
- TGI [10]: > 10 µM
- TGI [11]: > 10 µM
- TGI [12]: > 10 µM
- TGI [13]: > 10 µM
- TGI [14]: > 10 µM
- TGI [15]: > 10 µM

SMILES: O=c1c2n[nH]nc2nc2n1CC(c1ccccc1)S2 (centres undefined)
- TGI [1]: > 100 µM
- TGI [2]: > 100 µM
- TGI [3]: > 100 µM
- TGI [4]: > 100 µM
- TGI [16]: > 100 µM
- TGI [17]: > 100 µM
- TGI [6]: > 100 µM
- TGI [7]: > 100 µM
- TGI [18]: > 100 µM
- TGI [9]: > 100 µM
- TGI [10]: > 100 µM
- TGI [11]: > 100 µM
- TGI [19]: > 100 µM
- TGI [12]: > 100 µM
- TGI [13]: > 100 µM
- TGI [14]: > 100 µM
- TGI [15]: > 100 µM

SMILES: O=C1N(CN2CCOCC2)CN(CN2CCOCC2)C(=O)N1Cc1ccc(CN2C(=O)N(CN3CCOCC3)CN(CN3CCOCC3)C2=O)cc1
- TGI [1]: > 100 µM
- TGI [3]: > 100 µM
- TGI [4]: > 100 µM
- TGI [16]: > 100 µM
- TGI [17]: > 100 µM
- TGI [5]: > 100 µM
- TGI [7]: 76.4 µM
- TGI [8]: > 100 µM
- TGI [18]: > 100 µM
- TGI [9]: > 100 µM
- TGI [10]: > 100 µM
- TGI [11]: > 100 µM
- TGI [19]: > 100 µM
- TGI [12]: > 100 µM
- TGI [13]: > 100 µM
- TGI [14]: > 100 µM
- TGI [15]: > 100 µM

SMILES: CC(=O)O[C@H]1C(=O)[C@@]2(C)C(C(OC(=O)c3ccccc3)[C@]3(O)CC(OC(=O)C(O)C(NC(=O)c4ccccc4)c4cccc(Cl)c4)C(C)=C1C3(C)C)[C@]1(OC(C)=O)CO[C@@H]1C[C@@H]2O (some centres undefined)
- TGI [1]: > 10 µM
- TGI [2]: > 10 µM
- TGI [3]: > 10 µM
- TGI [4]: > 10 µM
- TGI [16]: > 10 µM
- TGI [17]: > 10 µM
- TGI [6]: > 10 µM
- TGI [7]: > 10 µM
- TGI [8]: > 10 µM
- TGI [18]: > 10 µM
- TGI [9]: 5.06 µM
- TGI [10]: > 10 µM
- TGI [11]: > 10 µM
- TGI [19]: > 10 µM
- TGI [12]: > 10 µM
- TGI [13]: > 10 µM
- TGI [14]: > 10 µM
- TGI [15]: > 10 µM

SMILES: Cc1c(N=Nc2ccc(Cl)cc2)c(C)n(C2OC(CO)C(O)C(O)C2O)c(=S)c1C#N (centres undefined)
- TGI [1]: 37.4 µM
- TGI [3]: 53.5 µM
- TGI [4]: 93.2 µM
- TGI [16]: 58.7 µM
- TGI [17]: 60.8 µM
- TGI [5]: 83 µM
- TGI [6]: 55.4 µM
- TGI [7]: 33.3 µM
- TGI [8]: 36.5 µM
- TGI [18]: 36.1 µM
- TGI [9]: 42.7 µM
- TGI [10]: 65.9 µM
- TGI [11]: 74.3 µM
- TGI [19]: 47.1 µM
- TGI [12]: 34.2 µM
- TGI [13]: > 100 µM
- TGI [14]: 79.5 µM
- TGI [15]: 54.1 µM

SMILES: CNc1ncnc2c1cnn2CCCCO
- TGI [1]: > 100 µM
- TGI [2]: > 100 µM
- TGI [3]: > 100 µM
- TGI [4]: > 100 µM
- TGI [16]: > 100 µM
- TGI [17]: > 100 µM
- TGI [5]: > 100 µM
- TGI [6]: > 100 µM
- TGI [7]: > 100 µM
- TGI [8]: > 100 µM
- TGI [18]: > 100 µM
- TGI [9]: > 100 µM
- TGI [10]: > 100 µM
- TGI [11]: > 100 µM
- TGI [12]: > 100 µM
- TGI [13]: > 100 µM
- TGI [14]: > 100 µM
- TGI [15]: > 100 µM

SMILES: CCn1c(O)c(C=Nc2ccccc2)s/c1=N/Nc1nc(-c2ccc(O)c(O)c2)cs1
- TGI [1]: > 100 µM
- TGI [3]: 57 µM
- TGI [4]: > 100 µM
- TGI [17]: > 100 µM
- TGI [5]: > 100 µM
- TGI [6]: 26.5 µM
- TGI [7]: > 100 µM
- TGI [8]: > 100 µM
- TGI [18]: > 100 µM
- TGI [10]: > 100 µM
- TGI [11]: > 100 µM
- TGI [19]: > 100 µM
- TGI [12]: 49 µM
- TGI [13]: > 100 µM
- TGI [14]: > 100 µM
- TGI [15]: > 100 µM
